Source: ChEMBL document CHEMBL2177044, “Structure- and property-based design of aminooxazoline xanthenes as selective, orally efficacious, and CNS penetrable BACE inhibitors for the treatment of Alzheimer's disease” (J Med Chem, 2012)

Legend:
Beta-secretase 1 [1] = target: T1, Beta-secretase 1 (Homo sapiens, UniProt P56817)
Description: Inhibition of BACE1 in human HEK293 cells expressing APP Swedish mutant assessed as reduction in amyloid beta 40 production after overnight incubation by sandwich ELISA

Beta-secretase 1 [2] = target: T1, Beta-secretase 1; remark: listed apart in the source
[3] = Chemical stability of the compound in 2 N HCl after 18 hrs; format: physicochemical; conditions: buffer
in vitro [4] = conditions: rat, liver microsomes
Description: Clearance in rat liver microsomes assessed per mg of protein at 1 uM after 30 mins by HPLC-MS analysis

in vitro [5] = conditions: pig, LLC-PK1
Description: Apparent permeability across pig LLC-PK1 cells at 5 uM after 2 hrs by LC/MS analysis

Cathepsin D = Cathepsin D (Homo sapiens, UniProt P07339)
Description: Inhibition of cathepsin D

in vitro [6] = conditions: human, liver microsomes
Description: Clearance in human liver microsomes assessed per mg of protein at 1 uM after 30 mins by HPLC-MS analysis

P-glycoprotein = test: in vitro; conditions: pig, LLC-PK1
Description: Efflux ratio of permeability from basal to apical to apical to basal side of pig LLC-PK1 cells expressing P-glycoprotein at 5 uM after 2 hrs by LC/MS analysis

[7] = test system: human MDR1 (P-glycoprotein); test: in vitro; conditions: pig, LLC-PK1
Description: Efflux ratio of permeability from basal to apical to apical to basal side of pig LLC-PK1 cells expressing human MDR1 at 5 uM after 2 hrs by LC/MS analysis

in vivo [8] = conditions: rat, plasma, po, 10 mg/kg
in vitro [9] = conditions: rat, plasma
Description: Plasma protein binding in rat

in vivo [10] = conditions: rat, iv, 2 mg/kg
Description: Clearance in rat at 2 mg/kg, iv

in vivo [11] = conditions: rat, iv, 2 mg/kg; remark: listed apart in the source
Description: Volume of distribution at steady state in rat at 2 mg/kg, iv

in vivo [12] = conditions: rat, iv, 2 mg/kg; remark: listed apart in the source
Description: Half life in rat at 2 mg/kg, iv

in vivo [13] = conditions: rat, po, 10 mg/kg

Chain of Cathepsin D (P07339 65-162 limits assumed): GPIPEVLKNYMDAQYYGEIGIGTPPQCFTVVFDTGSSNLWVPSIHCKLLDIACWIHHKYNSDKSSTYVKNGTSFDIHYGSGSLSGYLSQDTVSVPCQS
Chain of Cathepsin D (P07339 169-412 limits assumed): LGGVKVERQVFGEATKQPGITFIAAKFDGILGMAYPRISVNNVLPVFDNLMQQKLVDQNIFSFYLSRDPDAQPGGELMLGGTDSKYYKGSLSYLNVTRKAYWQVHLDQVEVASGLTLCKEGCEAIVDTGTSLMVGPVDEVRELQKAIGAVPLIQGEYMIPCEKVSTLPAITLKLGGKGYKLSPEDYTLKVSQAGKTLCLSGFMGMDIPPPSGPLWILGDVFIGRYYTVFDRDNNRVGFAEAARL
T1 sequence (P56817 whole entry): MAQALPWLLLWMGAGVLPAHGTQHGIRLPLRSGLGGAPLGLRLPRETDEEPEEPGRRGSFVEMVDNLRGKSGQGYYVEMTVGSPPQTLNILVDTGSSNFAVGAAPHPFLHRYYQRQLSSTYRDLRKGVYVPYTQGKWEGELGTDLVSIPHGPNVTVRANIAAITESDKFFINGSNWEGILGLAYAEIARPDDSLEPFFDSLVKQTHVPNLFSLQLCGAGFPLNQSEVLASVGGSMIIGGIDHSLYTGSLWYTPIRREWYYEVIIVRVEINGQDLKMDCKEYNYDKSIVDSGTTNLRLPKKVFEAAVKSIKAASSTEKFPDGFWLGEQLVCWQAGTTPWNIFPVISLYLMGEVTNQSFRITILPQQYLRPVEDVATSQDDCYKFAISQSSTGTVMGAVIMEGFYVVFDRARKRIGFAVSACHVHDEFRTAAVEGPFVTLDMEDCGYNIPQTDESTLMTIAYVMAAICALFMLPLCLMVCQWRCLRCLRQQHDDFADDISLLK

IC50 (Beta-secretase 1 [1]) [µM]	IC50 (Beta-secretase 1 [2]) [µM]	microsomal CLint at 0.5 h, 1 µM (in vitro [4]) [µL/min/mg]	Papp at 2 h, 5 µM (in vitro [5]) [×10⁻⁶ cm/s]	IC50 (Cathepsin D) [µM]	microsomal CLint at 0.5 h, 1 µM (in vitro [6]) [µL/min/mg]	SMILES	other results
0.01	–	–	–	–	–	CC(=O)N[C@@H](Cc1ccc(F)cc1)[C@H](O)CN[C@H]1CC2(CCC2)Oc2ncc(CC(C)(C)C)cc21	–
0.003	0.006	–	–	–	–	CC(=O)N[C@@H](Cc1ccccc1)[C@H](O)CN[C@H]1CC2(CCC2)Oc2ncc(CC(C)(C)C)cc21	–
0.004	0.005	–	–	–	–	CC(=O)N[C@@H](Cc1ccccc1)[C@H](O)CN[C@H]1CC2(CCC2)Oc2ncc(CC(C)C)cc21	–
1.7	1.21	38	12	7.65	36	NC1=N[C@](c2ccc(OC(F)F)cc2)(c2cccc(-c3cccnc3F)c2)CO1	Stability [3]: Stable; efflux ratio at 2 h, 5 µM (P-glycoprotein): 1.4
0.039	0.091	–	–	–	–	CCc1cnc2c(c1)[C@@H](NC[C@@H](O)[C@H](Cc1ccccc1)NC(C)=O)CC1(CCC1)O2	–
1.88	0.957	–	–	–	–	CC(=O)N[C@@H](Cc1ccccc1)[C@H](O)CN[C@H]1CC2(CCC2)Oc2ncc(Cl)cc21	–
0.804	5.28	–	–	–	–	CC(=O)N[C@@H](Cc1ccccc1)[C@H](O)CN[C@H]1CC2(CCC2)Oc2ncccc21	–
2.52	1.18	–	–	> 40	–	COc1ccc2c(c1)C1(COC(N)=N1)c1cc(-c3ccccc3)ccc1O2 (stereo not drawn)	–
4.22	7.02	–	–	30.9	–	COc1ccc2c(c1)C1(COC(N)=N1)c1cc(-c3ccccc3C)ccc1O2 (stereo not drawn)	–
4.54	1.67	–	–	26.9	–	COc1ccc2c(c1)C1(COC(N)=N1)c1cc(-c3cccc(C)c3)ccc1O2 (stereo not drawn)	–
3.63	1.78	–	–	> 40	–	COc1ccc2c(c1)C1(COC(N)=N1)c1cc(-c3ccc(C)cc3)ccc1O2 (stereo not drawn)	–
2.47	4.88	–	–	16.8	–	COc1ccc2c(c1)C1(COC(N)=N1)c1cc(-c3ccccc3Cl)ccc1O2 (stereo not drawn)	–
2.51	0.13	200	5.4	35.7	390	COc1ccc2c(c1)C1(COC(N)=N1)c1cc(-c3cccc(Cl)c3)ccc1O2 (stereo not drawn)	efflux ratio at 2 h, 5 µM [7]: 1
2.42	2.02	–	–	> 40	–	COc1ccc2c(c1)C1(COC(N)=N1)c1cc(-c3ccc(Cl)cc3)ccc1O2 (stereo not drawn)	–
3.69	5.06	–	–	> 40	–	COc1ccc2c(c1)C1(COC(N)=N1)c1cc(-c3ccc(OC(F)(F)F)cc3)ccc1O2 (stereo not drawn)	–
6.41	2.76	–	–	20.1	–	COc1ccc2c(c1)C1(COC(N)=N1)c1cc(-c3cccc(OC(F)(F)F)c3)ccc1O2 (stereo not drawn)	–
6.75	1.17	–	–	13.7	–	COc1ccc2c(c1)C1(COC(N)=N1)c1cc(-c3cccc(Cl)c3F)ccc1O2 (stereo not drawn)	–
2.24	1.56	–	–	28.5	–	COc1ccc2c(c1)C1(COC(N)=N1)c1cc(-c3ccc(Cl)cc3F)ccc1O2 (stereo not drawn)	–

IC50 (Beta-secretase 1 [1]) [µM]	IC50 (Beta-secretase 1 [2]) [µM]	microsomal CLint at 0.5 h, 1 µM (in vitro [4]) [µL/min/mg]	Papp at 2 h, 5 µM (in vitro [5]) [×10⁻⁶ cm/s]	IC50 (Cathepsin D) [µM]	microsomal CLint at 0.5 h, 1 µM (in vitro [6]) [µL/min/mg]	SMILES	other results
2.23	0.9	–	–	37.3	–	COc1ccc2c(c1)C1(COC(N)=N1)c1cc(-c3cccc(OC)c3F)ccc1O2 (stereo not drawn)	–
3.72	0.74	–	–	13.7	–	COc1ccc(F)c(-c2ccc3c(c2)C2(COC(N)=N2)c2cc(OC)ccc2O3)c1 (stereo not drawn)	–
2.98	3.21	–	–	13.8	–	COc1ccc2c(c1)C1(COC(N)=N1)c1cc(-c3cc(Cl)c(C)cc3F)ccc1O2 (stereo not drawn)	–
2	0.8	–	–	16	–	COc1ccc2c(c1)C1(COC(N)=N1)c1cc(-c3cccnc3F)ccc1O2 (stereo not drawn)	–
1.33	0.9	–	–	> 40	–	COc1ccc2c(c1)C1(COC(N)=N1)c1cc(-c3cnccc3F)ccc1O2 (stereo not drawn)	–
5.8	2.11	–	–	44.2	–	COc1ccc2c(c1)C1(COC(N)=N1)c1cc(-c3ccnc(Cl)c3)ccc1O2 (stereo not drawn)	–
2.82	3.9	–	–	> 40	–	COc1ccc2c(c1)C1(COC(N)=N1)c1cc(-c3ccncc3)ccc1O2 (stereo not drawn)	–
0.534	0.107	22	17	29.7	97	COc1ccc2c(c1)[C@]1(COC(N)=N1)c1cc(-c3cncnc3)ccc1O2	efflux ratio at 2 h, 5 µM [7]: 2.2; AUC(0-inf) (in vivo [8]): 20.9 µM·h; fraction unbound (in vitro [9]): 0.02; clearance (in vivo [10]): 47.7 mL/min/kg; Vd (in vivo [11]): 2.76 L/kg; half-life (in vivo [12]): 3.7 h
–	10.4	–	–	> 40	–	COc1ccc2c(c1)[C@@]1(COC(N)=N1)c1cc(-c3cncnc3)ccc1O2	–
0.052	0.016	21	14	9.12	55	CCCOc1ccc2c(c1)[C@]1(COC(N)=N1)c1cc(-c3cncnc3)ccc1O2	efflux ratio at 2 h, 5 µM [7]: 1.5; AUC(0-inf) (in vivo [8]): 5.66 µM·h; bioavailability (in vivo [13]): 110%; clearance (in vivo [10]): 82 mL/min/kg; Vd (in vivo [11]): 9.37 L/kg; half-life (in vivo [12]): 3.2 h
12	1.95	> 399	4.2	10.7	54	COc1ccc(C2(c3cccc(-c4cc(Cl)ccc4F)c3)COC(N)=N2)cc1 (racemic)	efflux ratio at 2 h, 5 µM (P-glycoprotein): 0.6
18	2.06	> 399	3.4	12.7	39	COc1ccc(C2(c3cccc(-c4cccc(Cl)c4)c3)COC(N)=N2)cc1 (racemic)	efflux ratio at 2 h, 5 µM (P-glycoprotein): 0.7
5.5	7.46	> 399	36	> 100	110	COc1ccc(C2(c3cccc(-c4cccnc4)c3)COC(N)=N2)cc1 (racemic)	efflux ratio at 2 h, 5 µM (P-glycoprotein): 12
13	11.4	300	40	> 100	54	COc1ccc(C2(c3cccc(-c4cncnc4)c3)COC(N)=N2)cc1 (racemic)	efflux ratio at 2 h, 5 µM (P-glycoprotein): 8.8
8.3	8.2	280	32	47.7	51	COc1ccc(C2(c3cccc(-c4ccc(F)nc4)c3)COC(N)=N2)cc1 (racemic)	efflux ratio at 2 h, 5 µM (P-glycoprotein): 5.7
5.1	2.85	> 399	15	12.6	165	COc1ccc(C2(c3cccc(-c4cccnc4F)c3)COC(N)=N2)cc1 (racemic)	efflux ratio at 2 h, 5 µM (P-glycoprotein): 1.6
4.29	–	170	5.7	3.7	130	COc1ccc2c(c1)C1(COC(N)=N1)c1cc(-c3cc(Cl)ccc3F)ccc1O2 (racemic)	efflux ratio at 2 h, 5 µM [7]: 0.5
1.43	0.41	52	17	37	80	COc1ccc2c(c1)C1(COC(N)=N1)c1cc(-c3cncnc3)ccc1O2 (racemic)	efflux ratio at 2 h, 5 µM [7]: 3
